Patent publication US20250101034A1, “COMPOSITIONS USEFUL FOR MODULATING SPLICING” (SKYHAWK THERAPEUTICS, INC., priority 2021, published 2025)
pIC50: −log10 of the molar value.

Key:
[1] = tested on: ATXN3 transcripts containing exon 4 (E4E5); assay: ATXN3 quantitative splicing assay (qPCR, SK-N-MC cells); format: cell-based; conditions: Homo sapiens, 24 h treatment, qPCR E4E5 primers/probe, read-out: ATXN3 Potency - Splicing E4E5 IC50
Procedure: Human neuroblastoma SK-N-MC cells were plated in 384-well plates at 20,000 cells/well. Twenty-four hours after plating, cells were treated with compounds for 24 h at appropriate concentrations ranging from 30 μM to 0.6 nM (0.3% DMSO). Treated cells were lysed in 15 μL of lysis buffer, and cDNA was synthesized using the Fast Advanced Cells-to-Ct kit. Two μL of each cDNA was used in qPCR reactions to confirm the exon 4 skipped transcripts of ATXN3. A second set of primers/probe E4E5 was used to detect the transcripts containing exon 4. The third set of primers/probe E8E9 was used to detect total gene level of ATXN3. The qPCR reactions were prepared in 384-well plates in 10 μL volume, using TaqMan™ Fast Advanced Master Mix with primers and probes shown in the table below. Reactions were run in a Quant Studio 6 qPCR instrument with default settings.
The primers and probes are listed below in Table 4.

total ATXN3 protein = assay: ATXN3 total protein assay (MSD, SK-N-MC cells); format: cell-based, Human; conditions: 48 hours incubation, read-out: ATXN3 Potency - Protein IC50
Procedure: Human neuroblastoma SK-N-MC cells were seeded at 10,000 cells/well in 384 well plates one day prior to compound treatment. The concentrations of compounds were tested at appropriate doses ranging from 30 μM to 0.6 nM. After incubation for 48 hours, the cells were lysed with 25 μL of lysis buffer containing protease inhibitors, and total ATXN3 protein levels were assessed by Mesoscale Discovery (MSD) assay developed with one pair of anti-ATXN3 antibodies. The capture and detect antibodies were raised in mouse and rabbit respectively. Anti-rabbit MSD-ST antibody was used for secondary antibody.
ATXN3 recombinant protein was used for standards. The readouts were captured with 35 μL of MSD read buffer and multi-array 384-well high binding plates.

pIC50 [1]	pIC50 (total ATXN3 protein)	Compound
5.30 to 6.30	5.30 to 6.30	Cc1c(C[C@@H](N)CO)sc2c(NCc3cccs3)cnnc12 [Compound 3, (2R)-2-amino-3-{7-methyl-4-[(thiophen-2-ylmethyl)amino]thieno[3,2-c]pyridazin-6-yl}propan-1-ol]
5.30 to 6.30	5.30 to 6.30	Cc1c(C[C@@H](N)CCF)sc2c(NCc3ccco3)cnnc12 [Compound 31, 6-[(2S)-2-amino-4-fluorobutyl]-N-[(furan-2-yl)methyl]-7-methylthieno[3,2-c]pyridazin-4-amine]
4.40 to 5.00	4.40 to 5.00	C=C(C)c1sc2c(NCc3cccs3)cnnc2c1C [Compound 37, 7-methyl-6-(prop-1-en-2-yl)-N-(thiophen-2-ylmethyl)thieno[3,2-c]pyridazin-4-amine]
6.30 to 7.00	6.30 to 7.00	N[C@@H](CO)Cc1sc2c(NCc3cccs3)cnnc2c1Cl [Compound 91, (2R)-2-amino-3-(7-chloro-4-{[(thiophen-2-yl)methyl]amino}thieno[3,2-c]pyridazin-6-yl)propan-1-ol]
4.40 to 5.00	4.40 to 5.00	Cc1c(C(C)CO)sc2c(NCc3cccs3)cnnc12 (stereo not drawn) [Compound 54, 2-{7-methyl-4-[(thiophen-2-ylmethyl)amino]thieno[3,2-c]pyridazin-6-yl}propan-1-ol]
6.30 to 7.00	6.30 to 7.00	C[C@H](F)[C@H](N)Cc1sc2c(NCc3cccs3)cnnc2c1Br [Compound 135, 6-[(2R,3S)-2-amino-3-fluorobutyl]-7-bromo-N-[(thiophen-2-yl)methyl]thieno[3,2-c]pyridazin-4-amine]
5.30 to 6.30	5.30 to 6.30	Cc1c(C[C@@H](N)CC2CC2)sc2c(NCc3ccco3)cnnc12 [Compound 52, 6-[(2S)-2-amino-3-cyclopropylpropyl]-N-[(furan-2-yl)methyl]-7-methylthieno[3,2-c]pyridazin-4-amine]
5.30 to 6.30	5.30 to 6.30	N[C@@H](COC1CC1)Cc1sc2c(NCc3cccs3)cnnc2c1Br [Compound 137, 6-[(2R)-2-amino-3-cyclopropoxypropyl]-7-bromo-N-[(thiophen-2-yl)methyl]thieno[3,2-c]pyridazin-4-amine]
4.40 to 5.00	4.40 to 5.00	Cc1c(C[C@@H](N)C[C@H]2CC2(F)F)sc2c(NCc3cccs3)cnnc12 [Compound 127, 6-[(2S)-2-amino-3-[(1S)-2,2-difluorocyclopropyl]propyl]-7-methyl-N-(thiophen-2-ylmethyl)thieno[3,2-c]pyridazin-4-amine]
4.40 to 5.00	4.40 to 5.00	C=C(C)Cc1sc2c(NCc3ccco3)cnnc2c1C [Compound 34, N-[(furan-2-yl)methyl]-7-methyl-6-(2-methylprop-2-en-1-yl)thieno[3,2-c]pyridazin-4-amine]
5.30 to 6.30	5.30 to 6.30	C[C@H](N)C(F)(F)c1sc2c(NCc3cccs3)cnnc2c1Br [Compound 140, 6-[(2S)-2-amino-1,1-difluoropropyl]-7-bromo-N-[(thiophen-2-yl)methyl]thieno[3,2-c]pyridazin-4-amine]
4.40 to 5.00	4.40 to 5.00	Cc1c(C[C@@H](N)CO)sc2c(NCc3sccc3F)cnnc12 [Compound 9, (2R)-2-amino-3-(4-{[(3-fluorothiophen-2-yl)methyl]amino}-7-methylthieno[3,2-c]pyridazin-6-yl)propan-1-ol]
4.40 to 5.00	4.40 to 5.00	Cc1csc2c(NCc3nccs3)cnnc12 [Compound 12, 7-methyl-N-[(1,3-thiazol-2-yl)methyl]thieno[3,2-c]pyridazin-4-amine]
5.00 to 5.30	5.00 to 5.30	Cc1c(C[C@@H](N)CC(C)C)sc2c(NCc3ccco3)cnnc12 [Compound 20, 6-[(2S)-2-amino-4-methylpentyl]-N-[(furan-2-y1)methyl]-7-methylthieno[3,2-c]pyridazin-4-amine]
4.40 to 5.00	4.40 to 5.00	Cc1c(C[C@H]2CCN2)sc2c(NCc3cccs3)cnnc12 [Compound 72, 6-{[(2R)-azetidin-2-yl]methyl}-7-methyl-N-[(thiophen-2-yl)methyl]thieno[3,2-c]pyridazin-4-amine]
5.30 to 6.30	5.30 to 6.30	N[C@@H](CO)Cc1cc2nncc(NCc3cccs3)c2s1 [Compound 53, (2R)-2-amino-3-(4-{[(thiophen-2-yl)methyl]amino}thieno[3,2-c]pyridazin-6-yl)propan-1-ol]
4.40 to 5.00	4.40 to 5.00	Cc1c([C@H](C)[C@H](C)N)sc2c(NCc3cccs3)cnnc12 [Compound 26]

Continued, molecule first:

Compound	pIC50 [1]	pIC50 (total ATXN3 protein)
C[C@H](N)Cc1sc2c(NCc3cccs3)cnnc2c1C#N [Compound 24, (S)-6-(2-aminopropyl)-4-((thiophen-2-ylmethyl)amino)thieno[3,2-c]pyridazine-7-carbonitrile]	5.30 to 6.30	5.30 to 6.30
Cc1c(C[C@H](C)N)sc2c(NCc3ccsc3F)cnnc12 [Compound 17, 6-[(2S)-2-aminopropyl]-N-[(2-fluorothiophen-3-y1)methyl]-7-methylthieno[3,2-c]pyridazin-4-amine]	5.00 to 5.30	4.40 to 5.00
Cc1c(C[C@@H](N)[C@H](C)F)sc2c(NCc3cccs3)cnnc12 [Compound 110, 6-[(2R,3S)-2-amino-3-fluorobutyl]-7-methyl-N-[(thiophen-2-yl)methyl]thieno[3,2-c]pyridazin-4-amine]	6.30 to 7.00	6.30 to 7.00
COc1c(C[C@H](C)N)sc2c(NCc3cccs3)cnnc12 [Compound 22, (S)-6-(2-aminopropyl)-7-methoxy-N-(thiophen-2-ylmethyl)thieno[3,2-c]pyridazin-4-amine]	5.30 to 6.30	5.30 to 6.30
Cc1c(C[C@H](C)N)sc2c(NCc3ccsc3)cnnc12 [Compound 8, 6-[(2S)-2-aminopropyl]-7-methyl-N-[(thiophen-3-yl)methyl]thieno[3,2-c]pyridazin-4-amine]	5.30 to 6.30	5.30 to 6.30
COc1ccc(CNc2cnnc3c(C)c(C[C@H](C)N)sc23)s1 [Compound 76, 6-[(2S)-2-aminopropyl]-N-[(5-methoxythiophen-2-yl)methyl]-7-methylthieno[3,2-c]pyridazin-4-amine]	4.40 to 5.00	4.40 to 5.00
Cc1c(C[C@H](C)N)sc2c(NC(=O)c3cccs3)cnnc12 [Compound 51, N-{6-[(2S)-2-aminopropyl]-7-methylthieno[3,2-c]pyridazin-4-yl}thiophene-2-carboxamide]	4.40 to 5.00	4.40 to 5.00
C[C@H](N)Cc1sc2c(N[C@@H](C)c3cccs3)cnnc2c1Br [Compound 112, 6-[(2S)-2-aminopropyl]-7-bromo-N-[(1S)-1-(thiophen-2-yl)ethyl]thieno[3,2-c]pyridazin-4-amine]	4.40 to 5.00	4.40 to 5.00
Cc1c(C[C@@H](N)CC(F)F)sc2c(NCc3cccs3)cnnc12 [Compound 28, 6-[(2S)-2-amino-4,4-difluorobutyl]-7-methyl-N-[(thiophen-2-yl)methyl]thieno[3,2-c]pyridazin-4-amine]	4.40 to 5.00	4.40 to 5.00
Cc1c(C[C@H](C)N)sc2c(NCc3csc(F)c3)cnnc12 [Compound 56, 6-[(2S)-2-aminopropyl]-N-[(5-fluorothiophen-3-yl)methyl]-7-methylthieno[3,2-c]pyridazin-4-amine]	4.40 to 5.00	4.40 to 5.00
C[C@H](N)Cc1sc2c(NCc3cccs3)cnnc2c1Br [Compound 35, 6-[(2S)-2-aminopropyl]-7-bromo-N-[(thiophen-2-yl)methyl]thieno[3,2-c]pyridazin-4-amine]	6.30 to 7.00	6.30 to 7.00
Cc1c(C[C@@H](N)COC2CC2)sc2c(NCc3cccs3)cnnc12 [Compound 131, 6-[(2R)-2-amino-3-cyclopropoxypropyl]-7-methyl-N-[(thiophen-2-yl)methyl]thieno[3,2-c]pyridazin-4-amine]	5.30 to 6.30	5.00 to 5.30
C[C@H](N)Cc1sc2c(NCc3cccs3)cnnc2c1C1CC1 [Compound 80, 6-[(2S)-2-aminopropyl]-7-cyclopropyl-N-[(thiophen-2-yl)methyl]thieno[3,2-c]pyridazin-4-amine]	5.30 to 6.30	5.30 to 6.30
COc1csc(CNc2cnnc3c(C)c(C[C@H](C)N)sc23)c1 [Compound 75, 6-[(2S)-2-aminopropyl]-N-[(4-methoxythiophen-2-yl)methyl]-7-methylthieno[3,2-c]pyridazin-4-amine]	4.40 to 5.00	4.40 to 5.00
COc1ccsc1CNc1cnnc2c(C)c(C[C@H](C)N)sc12 [Compound 74, 6-[(2S)-2-aminopropyl]-N-[(3-methoxythiophen-2-yl)methyl]-7-methylthieno[3,2-c]pyridazin-4-amine]	4.40 to 5.00	4.40 to 5.00
Cc1c(C[C@H](C)N)sc2c(NCc3ccco3)cnnc12 [Compound 2, 6-[(2S)-2-aminopropyl]-N-(furan-2-ylmethyl)-7-methylthieno[3,2-c]pyridazin-4-amine]	5.30 to 6.30	5.30 to 6.30
